Assay [1] concerns the target T1, human GLP-1R (Homo sapiens, UniProt P43220). The experiment in a line: GLP-1R HEK293 cell membrane [35S]GTPγS binding assay. Type of assay: biochemical. Set-up: expressed in transfected cells; host or cells: HEK293 cells expressing human GLP-1R; membranes. The method, boiled down: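 Membranes from HEK293 cells expressing the receptor incubated with peptide and […] [35S]GTPγS in HEPES pH 7.4 buffer with NaCl, MgCl2, saponin and BSA, 30 min at room temperature. Gαs-bound label captured by anti-Gαs antibody/SPA beads and counted; EC50 from four-parameter logistic fit.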

For assay [2], the target named is T1, human GLP-1R. Description: GLP-1R CHO cell β-arrestin recruitment assay. It is filed as cell-based. The settings on record: for hGLP1R B-Arrestin2 % Top: normalized to GLP-1 maximum control. Set-up: host or cells: CHO-K1 PathHunter cells, assay-ready frozen. Put shortly:
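PathHunter CHO-K1 cells with ProLink-tagged human GLP-1R and enzyme-acceptor-tagged β-arrestin-2 treated with serially diluted peptides in assay buffer containing 0.1% hydrolyzed casein, 90 min at 37 °C.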
(Arrestin recruitment assays detect the binding of arrestin to an activated receptor.)

The target of assay [3] is T2, gastric inhibitory peptide receptor (GIPR) (Homo sapiens, UniProt P48546).
T2 sequence (P48546 22-466): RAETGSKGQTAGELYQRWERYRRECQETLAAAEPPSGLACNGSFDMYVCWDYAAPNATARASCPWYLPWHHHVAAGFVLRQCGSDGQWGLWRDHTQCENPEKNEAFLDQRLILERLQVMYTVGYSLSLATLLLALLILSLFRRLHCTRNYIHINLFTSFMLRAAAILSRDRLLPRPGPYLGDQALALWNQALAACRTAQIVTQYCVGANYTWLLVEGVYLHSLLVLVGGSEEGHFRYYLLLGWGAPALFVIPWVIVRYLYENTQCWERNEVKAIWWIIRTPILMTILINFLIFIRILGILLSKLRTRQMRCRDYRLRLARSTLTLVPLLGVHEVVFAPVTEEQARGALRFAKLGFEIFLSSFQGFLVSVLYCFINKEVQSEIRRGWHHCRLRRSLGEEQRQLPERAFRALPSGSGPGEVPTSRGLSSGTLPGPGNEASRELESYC
The experiment in a line: cAMP pharmacological functional assay in presence of casein, hGIPR. It is filed as cell-based.

The target in assay [4] is human GLP-1 receptor (GLP-1R) (Homo sapiens, UniProt P43220). Description: cAMP pharmacological functional assay in presence of casein, hGLP-1R. Type of assay: cell-based.
The mark [5] stands for this setting: HEK293 cell membranes expressing human GLP-1R, [35S]GTPγS binding, read-out: hGLP1R GTPgS Rel EC50 nM (SEM, n).
The mark [6] stands for this setting: CHO-K1 cells, PathHunter β-arrestin-2 recruitment, 0.1% casein, read-out: hGLP1R B-Arrestin2 Rel EC50 uM (SEM, n).
The mark [7] stands for this setting: HEK293 cells expressing hGIPR, 0.1% Casein, geometric mean, read-out: hGIPR cAMP Rel EC50 nM (SEM, n).
The mark [8] stands for this setting: HEK293 cells expressing hGLP-1R, 0.1% Casein, geometric mean, read-out: hGLP1R cAMP Rel EC50 nM (SEM, n).

Like-named read-outs stand apart in the source and are kept apart here. Numbered stars: 1 amine (or outer) side, 2 acyl side, 3 side chain; on linkers, the order of the positions; unused ones are H or OH. Square brackets hold non-standard residues; d marks the D form. Side chains are listed from the residue outwards. Peptide text beside a SMILES is read from it. * marks the point of attachment. C20 diacid = O=C(O)CCCCCCCCCCCCCCCCCCC(=O)*; γGlu = O=C(O)[C@H](CCC(=O)[*:2])N[*:1]; αMeY = C[C@](N)(Cc1ccc(O)cc1)C(=O)O; αMeF = C[C@](N)(Cc1ccccc1)C(=O)O; αMeL = CC(C)C[C@](C)(N)C(=O)O; Dab = NCC[C@H](N)C(=O)O; Dap = NC[C@H](N)C(=O)O; AEEA = NCCOCCOCC(=O)O; Aib = CC(C)(N)C(=O)O

In general, EC50 refers to the concentration that produces a half-maximal response.

human GLP-1 receptor (GLP-1R), sequence (P43220 24-463): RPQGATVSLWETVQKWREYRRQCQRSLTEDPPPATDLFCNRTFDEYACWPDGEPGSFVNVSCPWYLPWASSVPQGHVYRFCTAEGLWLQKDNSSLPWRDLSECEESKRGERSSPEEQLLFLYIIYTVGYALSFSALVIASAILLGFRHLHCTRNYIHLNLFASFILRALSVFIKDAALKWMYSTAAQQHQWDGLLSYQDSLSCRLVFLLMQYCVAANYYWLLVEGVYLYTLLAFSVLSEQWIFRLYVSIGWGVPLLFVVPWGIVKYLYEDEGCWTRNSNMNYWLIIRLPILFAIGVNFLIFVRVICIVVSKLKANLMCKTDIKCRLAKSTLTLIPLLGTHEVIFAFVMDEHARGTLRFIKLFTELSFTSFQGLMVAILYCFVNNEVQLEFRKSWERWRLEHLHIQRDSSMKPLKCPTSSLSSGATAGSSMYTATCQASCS
T1 sequence (P43220 24-463): as above

In the case of `CC[C@H](C)[C@H](NC(=O)[C@H](CC(C)C)NC(=O)[C@H](Cc1ccc(O)cc1)NC(=O)[C@H](CCC(=O)O)NC(=O)[C@@H](NC(=O)[C@H](Cc1ccccc1)NC(=O)[C@H](CCC(=O)O)NC(=O)C(C)(C)NC(=O)[C@H](CCC(N)=O)NC(=O)[C@H](C)NC(=O)[C@H](CCCCNC(=O)COCCOCCNC(=O)COCCOCCNC(=O)CC[C@H](NC(=O)CCCCCCCCCCCCCCCCCCC(=O)O)C(=O)O)NC(=O)[C@H](CCCCN)NC(=O)[C@H](CC(=O)O)NC(=O)[C@H](CC(C)C)NC(=O)[C@](C)(CC(C)C)NC(=O)[C@@H](NC(=O)[C@H](CO)NC(=O)[C@H](Cc1ccc(O)cc1)NC(=O)[C@H](CC(=O)O)NC(=O)[C@H](CO)NC(=O)[C@@H](NC(=O)[C@](C)(Cc1ccccc1)NC(=O)[C@@H](NC(=O)CNC(=O)[C@H](CCC(=O)O)NC(=O)C(C)(C)NC(=O)[C@H](N)Cc1ccc(O)cc1)[C@@H](C)O)[C@@H](C)O)[C@@H](C)CC)[C@@H](C)CC)C(=O)N[C@@H](C)C(=O)NCC(=O)NCC(=O)N1CCC[C@H]1C(=O)N[C@@H](CO)C(=O)N[C@@H](CO)C(=O)NCC(=O)N[C@@H](C)C(=O)N1CCC[C@H]1C(=O)N1CCC[C@H]1C(=O)N1CCC[C@H]1C(=O)N[C@@H](CO)C(N)=O` [Example 345] (H-[dY][Aib]EGT[αMeF]TSDYSI[αMeL]LDKK([AEEA-AEEA-γGlu-C20 diacid])AQ[Aib]EFIEYLIAGGPSSGAPPPS-NH2), the EC50 in assay [1] is 0.684 nM; in assay [2] it was 0.00308 µM; in assay [3] it was 0.0649 nM; in assay [4] it was 0.035 nM. Besides, the “hGLP1R B-Arrestin2 % Top” value in assay [2] was determined as 74.7%.
`CC[C@H](C)[C@H](NC(=O)[C@H](CC(C)C)NC(=O)[C@H](Cc1ccc(O)cc1)NC(=O)[C@H](CCC(=O)O)NC(=O)[C@@H](NC(=O)[C@H](Cc1ccccc1)NC(=O)[C@H](C)NC(=O)C(C)(C)NC(=O)[C@H](CCC(N)=O)NC(=O)[C@H](C)NC(=O)[C@H](CCCCNC(=O)COCCOCCNC(=O)COCCOCCNC(=O)CC[C@H](NC(=O)CCCCCCCCCCCCCCCCCCC(=O)O)C(=O)O)NC(=O)[C@H](CCN)NC(=O)[C@H](CC(=O)O)NC(=O)[C@H](CC(C)C)NC(=O)[C@](C)(CC(C)C)NC(=O)[C@@H](NC(=O)[C@H](CO)NC(=O)[C@H](Cc1ccc(O)cc1)NC(=O)[C@H](CC(=O)O)NC(=O)[C@H](CO)NC(=O)[C@@H](NC(=O)[C@H](Cc1ccccc1)NC(=O)[C@@H](NC(=O)CNC(=O)[C@H](CCC(=O)O)NC(=O)C(C)(C)NC(=O)[C@H](N)Cc1ccc(O)cc1)[C@@H](C)O)[C@@H](C)O)[C@@H](C)CC)[C@@H](C)CC)C(=O)N[C@@H](C)C(=O)NCC(=O)NCC(=O)N1CCC[C@H]1C(=O)N[C@@H](CO)C(=O)N[C@@H](CO)C(=O)NCC(=O)N[C@@H](C)C(=O)N1CCC[C@H]1C(=O)N1CCC[C@H]1C(=O)N1CCC[C@H]1C(=O)N[C@@H](CO)C(N)=O` [Example 347] (H-[dY][Aib]EGTFTSDYSI[αMeL]LD[Dab]K([AEEA-AEEA-γGlu-C20 diacid])AQ[Aib]AFIEYLIAGGPSSGAPPPS-NH2): the EC50 came out at 0.759 nM in assay [1] (setting [5]), 0.00542 µM in assay [2] (setting [6]), 0.0827 nM in assay [3] (setting [7]) and 0.102 nM in assay [4] (setting [8]). The “hGLP1R B-Arrestin2 % Top” value in assay [2] came out at 24.6%.
For `CC[C@H](C)[C@H](NC(=O)[C@H](CC(C)C)NC(=O)[C@H](Cc1ccc(O)cc1)NC(=O)[C@H](CCC(=O)O)NC(=O)[C@@H](NC(=O)[C@H](Cc1ccccc1)NC(=O)[C@H](C)NC(=O)C(C)(C)NC(=O)[C@H](CCC(N)=O)NC(=O)[C@H](C)NC(=O)[C@H](CCCCNC(=O)COCCOCCNC(=O)COCCOCCNC(=O)CC[C@H](NC(=O)CCCCCCCCCCCCCCCCCCC(=O)O)C(=O)O)NC(=O)[C@H](CN)NC(=O)[C@H](CC(=O)O)NC(=O)[C@H](CC(C)C)NC(=O)[C@](C)(CC(C)C)NC(=O)[C@@H](NC(=O)[C@H](CO)NC(=O)[C@H](Cc1ccc(O)cc1)NC(=O)[C@H](CC(=O)O)NC(=O)[C@H](CO)NC(=O)[C@@H](NC(=O)[C@H](Cc1ccccc1)NC(=O)[C@@H](NC(=O)CNC(=O)[C@H](CCC(=O)O)NC(=O)C(C)(C)NC(=O)[C@H](N)Cc1ccc(O)cc1)[C@@H](C)O)[C@@H](C)O)[C@@H](C)CC)[C@@H](C)CC)C(=O)N[C@@H](C)C(=O)NCC(=O)NCC(=O)N1CCC[C@H]1C(=O)N[C@@H](CO)C(=O)N[C@@H](CO)C(=O)NCC(=O)N[C@@H](C)C(=O)N1CCC[C@H]1C(=O)N1CCC[C@H]1C(=O)N1CCC[C@H]1C(=O)N[C@@H](CO)C(N)=O` [Example 348] (H-[dY][Aib]EGTFTSDYSI[αMeL]LD[Dap]K([AEEA-AEEA-γGlu-C20 diacid])AQ[Aib]AFIEYLIAGGPSSGAPPPS-NH2), the EC50 in assay [1] (setting [5]) was 0.66 nM; in assay [2] (setting [6]) it was 0.00346 µM; in assay [3] (setting [7]) it was 0.193 nM; in assay [4] (setting [8]) it was 0.113 nM. The “hGLP1R B-Arrestin2 % Top” value in assay [2] is 19.8%.
Turning to `CC[C@H](C)[C@H](NC(=O)[C@H](CC(C)C)NC(=O)[C@H](Cc1ccc(O)cc1)NC(=O)[C@H](CCC(=O)O)NC(=O)[C@@H](NC(=O)[C@H](Cc1ccccc1)NC(=O)[C@H](CCC(=O)O)NC(=O)C(C)(C)NC(=O)[C@H](CCC(N)=O)NC(=O)[C@H](C)NC(=O)[C@H](CCCCNC(=O)COCCOCCNC(=O)COCCOCCNC(=O)CC[C@H](NC(=O)CCCCCCCCCCCCCCCCCCC(=O)O)C(=O)O)NC(=O)[C@H](CCN)NC(=O)[C@H](CC(=O)O)NC(=O)[C@H](CC(C)C)NC(=O)[C@](C)(CC(C)C)NC(=O)[C@@H](NC(=O)[C@H](CO)NC(=O)[C@H](Cc1ccc(O)cc1)NC(=O)[C@H](CC(=O)O)NC(=O)[C@H](CO)NC(=O)[C@@H](NC(=O)[C@H](Cc1ccccc1)NC(=O)[C@@H](NC(=O)CNC(=O)[C@H](CCC(=O)O)NC(=O)C(C)(C)NC(=O)[C@H](N)Cc1ccc(O)cc1)[C@@H](C)O)[C@@H](C)O)[C@@H](C)CC)[C@@H](C)CC)C(=O)N[C@@H](C)C(=O)NCC(=O)NCC(=O)N1CCC[C@H]1C(=O)N[C@@H](CO)C(=O)N[C@@H](CO)C(=O)NCC(=O)N[C@@H](C)C(=O)N1CCC[C@H]1C(=O)N1CCC[C@H]1C(=O)N1CCC[C@H]1C(=O)N[C@@H](CO)C(N)=O` [Example 350] (H-[dY][Aib]EGTFTSDYSI[αMeL]LD[Dab]K([AEEA-AEEA-γGlu-C20 diacid])AQ[Aib]EFIEYLIAGGPSSGAPPPS-NH2), the EC50 is 0.589 nM in assay [1] (setting [5]), 0.0108 µM in assay [2] (setting [6]), 0.189 nM in assay [3] (setting [7]) and 0.107 nM in assay [4] (setting [8]). Besides, the “hGLP1R B-Arrestin2 % Top” value in assay [2] is given as 21.8%.
Consider `CC[C@H](C)[C@H](NC(=O)[C@H](CC(C)C)NC(=O)[C@](C)(Cc1ccc(O)cc1)NC(=O)[C@H](CCC(=O)O)NC(=O)[C@@H](NC(=O)[C@H](Cc1ccccc1)NC(=O)[C@H](C)NC(=O)C(C)(C)NC(=O)[C@H](CCC(N)=O)NC(=O)[C@H](C)NC(=O)[C@H](CCCCNC(=O)COCCOCCNC(=O)COCCOCCNC(=O)CC[C@H](NC(=O)CCCCCCCCCCCCCCCCCCC(=O)O)C(=O)O)NC(=O)[C@H](CCC(=O)O)NC(=O)[C@H](CC(=O)O)NC(=O)[C@H](CC(C)C)NC(=O)[C@](C)(CC(C)C)NC(=O)[C@@H](NC(=O)[C@H](CO)NC(=O)[C@H](Cc1ccc(O)cc1)NC(=O)[C@H](CC(=O)O)NC(=O)[C@H](CO)NC(=O)[C@@H](NC(=O)[C@H](Cc1ccccc1)NC(=O)[C@@H](NC(=O)CNC(=O)[C@H](CCC(=O)O)NC(=O)C(C)(C)NC(=O)[C@H](N)Cc1ccc(O)cc1)[C@@H](C)O)[C@@H](C)O)[C@@H](C)CC)[C@@H](C)CC)C(=O)N[C@@H](C)C(=O)NCC(=O)NCC(=O)N1CCC[C@H]1C(=O)N[C@@H](CO)C(=O)N[C@@H](CO)C(=O)NCC(=O)N[C@@H](C)C(=O)N1CCC[C@H]1C(=O)N1CCC[C@H]1C(=O)N1CCC[C@H]1C(=O)N[C@@H](CO)C(N)=O` [Example 381] (H-[dY][Aib]EGTFTSDYSI[αMeL]LDEK([AEEA-AEEA-γGlu-C20 diacid])AQ[Aib]AFIE[αMeY]LIAGGPSSGAPPPS-NH2), for which the concentration for a half-maximal effect (EC50) came out at 0.273 nM in assay [1] (setting [5]) and 0.0155 µM in assay [2] (setting [6]). The “hGLP1R B-Arrestin2 % Top” value in assay [2] was 25.8%.
